Reference: US8921576B2, “Spiroindoline compound, and medicinal agent comprising same” (Kowa Company, Ltd., priority 2011, dated 2014)

Each compound was assayed against T1, GST-GK derived from human liver GK (Homo sapiens, UniProt P35557) (assay: In vitro GK activity measurement test (G6PDH-coupled, OD340)). Details: test compound 1 μmol/L; glucose 2.5 mmol/L; 25° C.; OD340 slope with compound / without compound; read-out: GK activation rate (%).
T1 construct: made in house; host or cells: Escherichia coli DH5α
T1 sequence (P35557 1-466 isoform P35557-2): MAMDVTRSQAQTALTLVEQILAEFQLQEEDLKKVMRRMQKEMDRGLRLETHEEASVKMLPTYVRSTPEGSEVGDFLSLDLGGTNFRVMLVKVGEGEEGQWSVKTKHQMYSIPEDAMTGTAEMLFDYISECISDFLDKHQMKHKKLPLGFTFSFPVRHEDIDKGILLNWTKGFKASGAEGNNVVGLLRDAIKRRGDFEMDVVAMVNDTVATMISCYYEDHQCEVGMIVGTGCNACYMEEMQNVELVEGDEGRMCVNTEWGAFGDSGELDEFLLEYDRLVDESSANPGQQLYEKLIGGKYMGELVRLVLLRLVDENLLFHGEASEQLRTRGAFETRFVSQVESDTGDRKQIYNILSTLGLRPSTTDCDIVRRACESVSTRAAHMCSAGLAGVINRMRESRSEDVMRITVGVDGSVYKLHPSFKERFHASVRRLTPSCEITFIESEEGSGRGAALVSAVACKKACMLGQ
Assay type: biochemical
Text: cDNA (GenBank Accession No. NM_033507, human glucokinase, variant 2) encoding human liver-type GK polypeptide was cloned by performing a polymerase chain reaction (hereinafter referred to as “PCR”) using a human liver cDNA library (Human liver QUICK-Clone cDNA, TAKARA BIO INC.), and the thus cloned cDNA was then introduced into an expression vector (pGEX-3X, GE Healthcare Japan) for glutathione S transferase (hereinafter referred to as GST) fusion protein expression. The resulting vector was introduced into Escherichia coli (Competent high DH5α, Toyobo Co., Ltd.), and the transformed Escherichia coli was then cultured at 37° C. Thereafter, Isopropyl β-D-1-thiogalactopyranoside (final concentration: 1 mmol/L, Sigma Aldrich Japan) was added to the culture, and the obtained mixture was then cultured at 30° C. for 3 hours. Thereafter, a cell mass was recovered. The recovered cell mass was subjected to freezing-and-thawing, and the resulting cell mass was then suspended in phosphate buffer with final concentration of 1% Triton X-100, followed by disintegration with an ultrasonic disruptor. The homogenate was centrifuged at 33,200 rpm at 4° C. for 1 hour. Thereafter, the supernatant was recovered, and a GST-GK fusion protein was then purified using a glutathione column (GSTrap FF, GE Healthcare Japan). The obtained GST-GK fusion protein was divided into some portions each having a small volume, and the thus divided proteins were then preserved at −80° C.
A GK assay method was carried out at 25° C. at a final incubation volume of 100 μL in a flat-bottom 96-well assay plate. An assay buffer comprised 25 mmol/L Hepes buffer (pH 7.1), 25 mmol/L KCl, 2.5 mmol/L or 10 mmol/L D-glucose, 5 mmol/L ATP, 1 mmol/L nicotinamide adenine dinucleotide phosphate (abbreviated as NADP), 2 mmol/L MgCl2, 1 mmol/L dithiothreitol (DTT), 2 units/mL glucose-6 phosphate dehydrogenase (G6PDH), and 1 μg/mL GST-GK derived from human liver GK. ATP, G6PDH, and NADP were purchased from Roche Diagnostics. […] The thus mixed solution was preincubated in an incubator in which the temperature was controlled at 25° C. for 15 minutes. Subsequently, the reaction was initiated by adding 10 μL of the GST-GK solution to the reaction mixture, resulting in a final concentration of 0.1 μg/mL. After initiation of the reaction, an increase in the optical concentration at 340 nm (OD340) was monitored with a microplate spectrophotometer (Varsamax, Molecular Devices Japan K.K.) every 10 seconds over an incubation period of 10 minutes. An inclination of the OD340 increase was defined as raw data. The GK activating rate was indicated as a numerical value obtained from the expression: (Inclination of OD340 increase by addition of the test compound)/(inclination of OD340 increase without addition of the test compound). The results of the GK activating rate obtained at a test compound concentration of 1 μmol/L under the condition of a glucose concentration of 2.5 mmol/L are shown in the following table.

First: CC(=O)N1CC(CNC(=O)N2CCC3(C2)CN(C(=O)Nc2ncc(Cl)s2)c2ccc(C(F)(F)F)cc23)C1 (centres unmarked) [Example 445, N1′-((1-acetylazetidin-3-yl)methyl)-N1-(5-chlorothiazol-2-yl)-5-(trifluoromethyl)spiro[indoline-3,3′-pyrrolidine]-1,1′-dicarboxamide]
Second: CC(=O)N1CC(CNC(=O)N2CCC3(C2)CN(C(=O)Nc2ncc(Cl)s2)c2ccc(Cl)cc23)C1 (centres unmarked) [Example 476, N1′-((1-acetylazetidin-3-yl)methyl)-5-chloro-N1-(5-chlorothiazol-2-yl)spiro[indoline-3,3′-pyrrolidine]-1,1′-dicarboxamide]
The activity at 1 µM of the first is higher: 500% for the first, 445% for the second.

Compared with `COC(=O)N1CC[C@@]2(C1)CN(C(=O)Nc1ncc(Cl)s1)c1ccc(Cl)cc12` [Example 351, (S)-methyl 5-chloro-1-((5-chlorothiazol-2-yl)carbamoyl)spiro[indoline-3,3′-pyrrolidine]-1′-carboxylate], `COC(=O)N1CCC2(C1)CN(C(=O)Nc1ncc(Cl)s1)c1ccc(Br)cc12` (centres unmarked) [Example 13, Methyl 5-bromo-1-((5-chlorothiazol-2-yl)carbamoyl)spiro[indoline-3,3′-pyrrolidine]-1′-carboxylate] is lower in activity at 1 µM: 886% for the first, 678% for the second.

Going from `COC(=O)N1CCC2(C1)CN(C(=O)Nc1ncc(SCCCO)s1)c1ccc(Cl)cc12` (centres unmarked) [Example 161, Methyl 5-chloro-1-((5-((3-hydroxypropyl)thio)thiazol-2-yl)carbamoyl)spiro[indoline-3,3′-pyrrolidine]-1′-carboxylate] to `COC(=O)N1CCC2(C1)CN(C(=O)Nc1ncc(SCCCN(C)C)s1)c1ccc(Cl)cc12` (centres unmarked) [Example 180, Methyl 5-chloro-1-((5-((3-(dimethylamino)propyl)thio)thiazol-2-yl)carbamoyl)spiro[indoline-3,3′-pyrrolidine]-1′-carboxylate], the activity at 1 µM falls from 514% to 442%.

Going from `CC(=O)OCC(=O)N1CC[C@@]2(C1)CN(C(=O)Nc1ncc(Cl)s1)c1ccc(Cl)cc12` [Example 52, (R)-2-(5-chloro-1-((5-chlorothiazol-2-yl)carbamoyl)spiro[indoline-3,3′-pyrrolidin]-1′-yl)-2-oxoethyl acetate] to `CCOC(=O)CCCNC(=O)N1CCC2(C1)CN(C(=O)Nc1ncc(Cl)s1)c1ccc(Cl)cc12` (centres unmarked) [Example 468, Ethyl 4-(5-chloro-1-((5-chlorothiazol-2-yl)carbamoyl)spiro[indoline-3,3′-pyrrolidin]-1′-ylcarboxamido)butanoate], the activity at 1 µM falls from 531% to 405%.

Going from `COc1ccc2nc(NC(=O)N3CC4(CCN(C(C)=O)C4)c4cc(S(=O)(=O)NCc5ccco5)ccc43)sc2n1` (centres unmarked) [Example 271, 1′-Acetyl-5-(N-(furan-2-ylmethyl)sulfamoyl)-N-(5-methoxythiazolo[5,4-b]pyridin-2-yl)spiro[indoline-3,3′-pyrrolidine]-1-carboxamide] to `COCCN(Cc1ccccc1)S(=O)(=O)c1ccc2c(c1)C1(CCN(C(C)=O)C1)CN2C(=O)Nc1nc2ccc(OC)nc2s1` (centres unmarked) [Example 288, 1′-Acetyl-5-(N-benzyl-N-(2-methoxyethyl)sulfamoyl)-N-(5-methoxythiazolo[5,4-b]pyridin-2-yl)spiro[indoline-3,3′-pyrrolidine]-1-carboxamide], the activity at 1 µM rises from 578% to 793%.

Going from `CC(=O)N1CCC2(C1)CN(C(=O)Nc1ncc(Cl)s1)c1ccc(Br)cc12` (centres unmarked) [Example 3, 1′-acetyl-5-bromo-N-(5-chlorothiazol-2-yl)spiro[indoline-3,3′-pyrrolidine]-1-carboxamide] to `COC(=O)N1CC[C@@]2(C1)CN(C(=O)Nc1ncc(Cl)s1)c1ccc(Br)cc12` [Example 320, (S)-methyl 5-bromo-1-((5-chlorothiazol-2-yl)carbamoyl)spiro[indoline-3,3′-pyrrolidin]-1′-ylcarboxylate], the activity at 1 µM rises from 716% to 818%.

Going from `O=C(CCCNC(=O)N1CCC2(C1)CN(C(=O)Nc1ncc(Cl)s1)c1ccc(Cl)cc12)N1CCC1` (centres unmarked) [Example 471, N1′-(4-(Azetidin-1-yl)-4-oxobutyl)-5-chloro-N1-(5-chlorothiazol-2-yl)spiro[indoline-3,3′-pyrrolidine]-1,1′-dicarboxamide] to `CNC(=O)CCCNC(=O)N1CCC2(C1)CN(C(=O)Nc1ncc(Cl)s1)c1ccc(Cl)cc12` (centres unmarked) [Example 472, 5-Chloro-N1-(5-chlorothiazol-2-yl)-N1′-(4-(methylamino)-4-oxobutyl)spiro[indoline-3,3′-pyrrolidine]-1,1′-dicarboxamide], the activity at 1 µM falls from 470% to 456%.

First: CC(=O)N1CCC2(C1)CN(C(=O)Nc1ncc(Cl)s1)c1ccc(C(F)(F)F)cc12 (centres unmarked) [Example 431, 1′-acetyl-N-(5-chlorothiazol-2-yl)-5-(trifluoromethyl)spiro[indoline-3,3′-pyrrolidine]-1-carboxamide]
Second: CNC(=O)N1CC[C@@]2(C1)CN(C(=O)Nc1ncc(F)s1)c1ccc(C(F)(F)F)cc12 [Example 487, (R)—N1-(5-Fluorothiazol-2-yl)-N1′-methyl-5-(trifluoromethyl)spiro[indoline-3,3′-pyrrolidine]-1,1′-dicarboxamide]
The activity at 1 µM of the first is lower: 432% for the first, 659% for the second.

Going from `CNC(=O)CCSc1cnc(NC(=O)N2CC3(CCN(C(=O)OC)C3)c3cc(Cl)ccc32)s1` (centres unmarked) [Example 151, methyl 5-chloro-1-((5-((3-(methylamino)-3-oxopropyl)thio)thiazol-2-yl)carbamoyl)spiro[indoline-3,3′-pyrrolidine]-1′-carboxylate] to `CNC(=O)CCCSc1cnc(NC(=O)N2CC3(CCN(C(=O)OC)C3)c3cc(Cl)ccc32)s1` (centres unmarked) [Example 164, methyl 5-chloro-1-((5-((4-(methylamino)-4-oxobutyl)thio)thiazol-2-yl)carbamoyl)spiro[indoline-3,3′-pyrrolidine]-1′-carboxylate], the activity at 1 µM falls from 656% to 567%.

Compared with `COC(=O)N1CCC2(C1)CN(C(=O)Nc1ncc(SC(C)CO)s1)c1ccc(Cl)cc12` (centres unmarked) [Example 141, methyl 5-chloro-1-((5-((1-hydroxypropan-2-yl)thio)thiazol-2-yl)carbamoyl)spiro[indoline-3,3′-pyrrolidine]-1′-carboxylate], `CNC(=O)N1CC[C@@]2(C1)CN(C(=O)Nc1ncc(OC)s1)c1ccc(C#N)cc12` [Example 381, (R)-5-Cyano-N1-(5-methoxythiazol-2-yl)-N1′-methylspiro[indoline-3,3′-pyrrolidine]-1,1′-dicarboxamide] is lower in activity at 1 µM: 574% for the first, 465% for the second.

Compared with `COCCN(Cc1ccccc1)S(=O)(=O)c1ccc2c(c1)[C@@]1(CCN(C(=O)OC)C1)CN2C(=O)Nc1nc2ccc(OC)nc2s1` [Example 344, (S)-methyl 5-(N-benzyl-N-(2-methoxyethyl)sulfamoyl)-1-((5-methoxythiazolo[5,4-b]pyridin-2-yl)carbamoyl)spiro[indoline-3,3′-pyrrolidine]-1′-carboxylate], `CN(C)CCN(Cc1ccccc1)S(=O)(=O)c1ccc2c(c1)C1(CCN(C=O)C1)CN2C(=O)Nc1ncc(F)s1` (centres unmarked) [Example 308, 5-(N-benzyl-N-(2-(dimethylamino)ethyl)sulfamoyl)-N-(5-fluorothiazol-2-yl)-1′-formylspiro[indoline-3,3′-pyrrolidine]-1-carboxamide] is lower in activity at 1 µM: 647% for the first, 504% for the second.

With `NCC(=O)N1CCC2(C1)CN(C(=O)Nc1ncc(Cl)s1)c1ccc(Br)cc12` (centres unmarked) [Example 20, 1′-(2-aminoacetyl)-5-bromo-N-(5-chlorothiazol-2-yl)spiro[indoline-3,3′-pyrrolidine]-1-carboxamide] the activity at 1 µM was 429%.
